Test results published in patent US10905123B2, “Herbicidal compounds” (Syngenta Participations AG, priority 2015, dated 2021).

What was measured:
Assay type in all cases: in vivo
Details in all cases: evaluated after 13 days
[1] = system: Alopecurus myosuroides (ALOMY); assay: B1 pre-emergence herbicidal activity
Protocol: (§1) Seeds of a variety of test species were sown in standard soil in pots: Triticum aestivium (TRZAW), Oryza sativa (ORYSA), Avena fatua (AVEFA), Alopecurus myosuroides (ALOMY), Echinochloa crus-galli (ECHCG), Lolium perenne (LOLPE). After cultivation for one day (pre-emergence) under controlled conditions in a glasshouse (at 24/16° C., day/night; 14 hours light; 65% humidity), the plants were sprayed with an aqueous spray solution derived from the formulation of the technical active ingredient in acetone/water (50:50) solution containing 0.5% Tween 20 (polyoxyethelyene sorbitan monolaurate, CAS RN 9005-64-5). The test plants were then grown in a glasshouse under controlled conditions (at 24/16° C., day/night; 14 hours light; 65% humidity) and watered twice daily. After 13 days, the test was evaluated (5=total damage to plant; 0=no damage to plant).

Avena fatua (AVEFA) [2] = assay: B1 pre-emergence herbicidal activity
Protocol: as §1

[3] = system: Echinochloa crus-galli (ECHCG); assay: B1 pre-emergence herbicidal activity
Protocol: as §1

Lolium perenne (LOLPE) [4] = assay: B1 pre-emergence herbicidal activity
Protocol: as §1

Oryza sativa (ORYSA) [5] = assay: B1 pre-emergence herbicidal activity
Protocol: as §1

[6] = system: Triticum aestivium (TRZAW); assay: B1 pre-emergence herbicidal activity
Protocol: as §1

[7] = system: Alopecurus myosuroides (ALOMY); assay: B2 post-emergence herbicidal activity
Protocol: (§2) Seeds of a variety of test species were sown in standard soil in pots: Triticum aestivium (TRZAW), Oryza sativa (ORYSA), Avena fatua (AVEFA), Alopecurus myosuroides (ALOMY), Echinochloa crus-galli (ECHCG), Lolium perenne (LOLPE). After 8 days cultivation (post-emergence) under controlled conditions in a glasshouse (at 24/16° C., day/night; 14 hours light; 65% humidity), the plants were sprayed with an aqueous spray solution derived from the formulation of the technical active ingredient in acetone/water (50:50) solution containing 0.5% Tween 20 (polyoxyethelyene sorbitan monolaurate, CAS RN 9005-64-5). The test plants were then grown in a glasshouse under controlled conditions (at 24/16° C., day/night; 14 hours light; 65% humidity) and watered twice daily. After 13 days, the test was evaluated (5=total damage to plant; 0=no damage to plant).

Avena fatua (AVEFA) [8] = assay: B2 post-emergence herbicidal activity
Protocol: as §2

[9] = system: Echinochloa crus-galli (ECHCG); assay: B2 post-emergence herbicidal activity
Protocol: as §2

Lolium perenne (LOLPE) [10] = assay: B2 post-emergence herbicidal activity
Protocol: as §2

Oryza sativa (ORYSA) [11] = assay: B2 post-emergence herbicidal activity
Protocol: as §2

[12] = system: Triticum aestivium (TRZAW); assay: B2 post-emergence herbicidal activity
Protocol: as §2

SMILES	Control of ALOMY after pre-emergence application (damage score 0-5) ([1]; Rate 1000 g/ha)	Control of AVEFA after pre-emergence application (damage score 0-5) (Avena fatua (AVEFA) [2]; Rate 1000 g/ha)	Control of ECHCG after pre-emergence application (damage score 0-5) ([3]; Rate 1000 g/ha)	Control of LOLPE after pre-emergence application (damage score 0-5) (Lolium perenne (LOLPE) [4]; Rate 1000 g/ha)	Control of ORYSA after pre-emergence application (damage score 0-5) (Oryza sativa (ORYSA) [5]; Rate 1000 g/ha)	Control of TRZAW after pre-emergence application (damage score 0-5) ([6]; Rate 1000 g/ha)	Control of ALOMY after post-emergence application (damage score 0-5) ([7]; Rate 1000 g/ha)	Control of AVEFA after post-emergence application (damage score 0-5) (Avena fatua (AVEFA) [8]; Rate 1000 g/ha)	Control of ECHCG after post-emergence application (damage score 0-5) ([9]; Rate 1000 g/ha)	Control of LOLPE after post-emergence application (damage score 0-5) (Lolium perenne (LOLPE) [10]; Rate 1000 g/ha)	Control of ORYSA after post-emergence application (damage score 0-5) (Oryza sativa (ORYSA) [11]; Rate 1000 g/ha)	Control of TRZAW after post-emergence application (damage score 0-5) ([12]; Rate 1000 g/ha)	other results
CN(C(=O)OC(C)(C)C)c1cc(-c2cccnc2)nn1C [Compound A1, tert-butyl N-methyl-N-[2-methyl-5-(3-pyridyl)pyrazol-3-yl]carbamate]	0	1	3	1	1	0	3	1	5	1	4	1	–
Cc1nn(-c2cncnc2)cc1NC(=O)OC(C)(C)C [Compound A3, tert-butyl N-(3-methyl-1-pyrimidin-5-yl-pyrazol-4-yl)carbamate]	–	–	–	–	–	–	–	–	–	–	–	–	Control of ALOMY after pre-emergence application (damage score 0-5) ([1]; Rate 500 g/ha): 0; Control of AVEFA after pre-emergence application (damage score 0-5) (Avena fatua (AVEFA) [2]; Rate 500 g/ha): 0; Control of ECHCG after pre-emergence application (damage score 0-5) ([3]; Rate 500 g/ha): 4; Control of LOLPE after pre-emergence application (damage score 0-5) (Lolium perenne (LOLPE) [4]; Rate 500 g/ha): 0; Control of ORYSA after pre-emergence application (damage score 0-5) (Oryza sativa (ORYSA) [5]; Rate 500 g/ha): 1; Control of TRZAW after pre-emergence application (damage score 0-5) ([6]; Rate 500 g/ha): 1; Control of ALOMY after post-emergence application (damage score 0-5) ([7]; Rate 500 g/ha): 2; Control of AVEFA after post-emergence application (damage score 0-5) (Avena fatua (AVEFA) [8]; Rate 500 g/ha): 4; Control of ECHCG after post-emergence application (damage score 0-5) ([9]; Rate 500 g/ha): 5; Control of LOLPE after post-emergence application (damage score 0-5) (Lolium perenne (LOLPE) [10]; Rate 500 g/ha): 2; Control of ORYSA after post-emergence application (damage score 0-5) (Oryza sativa (ORYSA) [11]; Rate 500 g/ha): 1; Control of TRZAW after post-emergence application (damage score 0-5) ([12]; Rate 500 g/ha): 1
CC(C)(C)OC(=O)Nc1cn(-c2cncnc2)nc1C(F)(F)F [Compound A4]	0	1	4	0	1	0	1	1	5	1	2	1	–
Cc1nn(-c2cncnc2)cc1N(C)C(=O)OC(C)(C)C [Compound A5, tert-butyl N-methyl-N-(3-methyl-1-pyrimidin-5-yl-pyrazol-4-yl)carbamate]	1	4	5	1	2	4	4	0	5	2	5	2	–
